Values after ≈ are worked out from the molar mass of the structure shown. Active and inactive are the calls of the source. The calls are words filed in the database; no cut-off is given here.
Legend:
Enterococcus faecalis [1] = test: Minimum inhibitory concentration against growth of patient isolated vancomycin-resistant Enterococcus faecalis ATCC 51299 (VRE2); no inhibition; type: functional, organism-based
Staphylococcus aureus [2] = test: Minimum inhibitory concentration against growth of patient isolated methicillin-resistant Staphylococcus aureus (MRSA2); no inhibition; type: functional, organism-based
Escherichia coli = test: Minimum inhibitory concentration against growth of […] Escherichia coli […]; type: functional
Enterococcus faecalis [3] = test: Minimum inhibitory concentration against growth of patient isolated vancomycin-resistant Enterococcus faecalis ATCC 51299 (VRE2); type: functional
Enterococcus faecium = test: Minimum inhibitory concentration against growth of patient isolated vancomycin-resistant Enterococcus faecium (VRE1); type: functional
Staphylococcus aureus [4] = test: Minimum inhibitory concentration against growth of patient isolated methicillin-resistant Staphylococcus aureus (MRSA1); type: functional
Staphylococcus aureus [5] = test: Minimum inhibitory concentration against growth of patient isolated methicillin-resistant Staphylococcus aureus (MRSA2); type: functional

SMILES	MIC (Enterococcus faecalis [1])	MIC (Staphylococcus aureus [2])	MIC (Escherichia coli) [µg/mL]	MIC (Enterococcus faecalis [3]) [µg/mL]	MIC (Enterococcus faecium) [µg/mL]	MIC (Staphylococcus aureus [4]) [µg/mL]	MIC (Staphylococcus aureus [5]) [µg/mL]
CC(C)=CCN1c2ccccc2C2(CC=C(C)C)CCN(C=O)C12 (configuration not stated)	inactive	inactive	–	–	–	–	–
CC(C)=CCC12CCN(C)C1Nc1ccccc12 (configuration not stated)	–	–	160 (≈ 660 µM)	40 (≈ 165 µM)	20 (≈ 82.5 µM)	40 (≈ 165 µM)	40 (≈ 165 µM)

Reference: ChEMBL document CHEMBL1128060, “Deoxypseudophrynaminol: a novel antibacterial alkaloid” (1995)
